{"source": "patent US10150739B2", "about": "“Crystalline form of androgen receptor inhibitor and preparation method thereof” (priority 2015, dated 2018)", "key": {"[1]": {"assay_type": "physicochemical"}, "[2]": {"assay_type": "physicochemical", "protocol": "(§1) The compound of formula (I) (0.5 g, 1.04 mmol) (prepared according to Example 1) and the compound of formula (I) (0.5 g, 1.04 mmol) (prepared according to Example 11) were added to a 25 mL one-necked flask, followed by addition of 4.0 mL of ethyl acetate-isopropyl ether (v:v=1:1). The mixture was pulped at room temperature, then filtered and dried to obtain a solid (872 mg, yield: 87.2%).\nas §1, with “12)” for “11)”, “(850” for “(872”, “85.0%).” for “87.2%).”", "remark": "listed apart in the source"}, "[3]": {"assay_type": "physicochemical", "settings": "for Crystal form / Purity: 25° C., RH 60%", "protocol": "The sample was placed under conditions of 25° C., RH 60% for a long period of time, and regular sampling was carried out to determine the purity."}, "[4]": {"assay_type": "physicochemical", "protocol": "Samplings were carried out on Day 5 and Day 10.", "remark": "listed apart in the source"}, "AIPC [5]": {"system": "AIPC", "settings": "mouse; cited from earlier work"}, "AIPC [6]": {"system": "AIPC", "settings": "human; cited from earlier work"}, "AR [7]": {"biological_target": "T1, AR (Homo sapiens, UniProt P10275)", "T1 sequence (P10275 1-920)": "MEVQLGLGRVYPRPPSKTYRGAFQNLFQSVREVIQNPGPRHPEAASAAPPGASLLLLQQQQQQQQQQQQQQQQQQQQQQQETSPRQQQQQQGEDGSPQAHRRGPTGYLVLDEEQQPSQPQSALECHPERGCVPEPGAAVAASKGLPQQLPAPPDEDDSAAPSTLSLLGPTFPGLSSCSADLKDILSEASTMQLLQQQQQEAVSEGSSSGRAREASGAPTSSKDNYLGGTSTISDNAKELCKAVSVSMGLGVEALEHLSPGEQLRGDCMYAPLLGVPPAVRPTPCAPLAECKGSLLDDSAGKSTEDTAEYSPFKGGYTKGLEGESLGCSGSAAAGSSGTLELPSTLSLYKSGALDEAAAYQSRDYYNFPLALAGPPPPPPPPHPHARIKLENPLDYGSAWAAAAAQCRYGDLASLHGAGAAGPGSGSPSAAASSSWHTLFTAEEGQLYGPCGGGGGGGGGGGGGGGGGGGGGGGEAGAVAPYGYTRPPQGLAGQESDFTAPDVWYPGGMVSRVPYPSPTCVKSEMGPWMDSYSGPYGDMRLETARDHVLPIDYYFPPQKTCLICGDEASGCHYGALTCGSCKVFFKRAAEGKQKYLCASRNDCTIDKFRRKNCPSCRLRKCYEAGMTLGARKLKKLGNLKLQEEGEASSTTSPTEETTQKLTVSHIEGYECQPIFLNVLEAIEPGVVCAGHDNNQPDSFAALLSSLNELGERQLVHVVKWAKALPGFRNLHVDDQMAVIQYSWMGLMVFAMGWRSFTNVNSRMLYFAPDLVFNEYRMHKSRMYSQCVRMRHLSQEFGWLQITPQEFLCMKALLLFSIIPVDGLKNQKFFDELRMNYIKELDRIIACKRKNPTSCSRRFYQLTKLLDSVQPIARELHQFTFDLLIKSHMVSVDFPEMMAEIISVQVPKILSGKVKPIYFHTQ", "settings": "cited from earlier work"}, "hERG": {"biological_target": "hERG (Homo sapiens, UniProt Q12809)", "sequence (Q12809 whole entry)": "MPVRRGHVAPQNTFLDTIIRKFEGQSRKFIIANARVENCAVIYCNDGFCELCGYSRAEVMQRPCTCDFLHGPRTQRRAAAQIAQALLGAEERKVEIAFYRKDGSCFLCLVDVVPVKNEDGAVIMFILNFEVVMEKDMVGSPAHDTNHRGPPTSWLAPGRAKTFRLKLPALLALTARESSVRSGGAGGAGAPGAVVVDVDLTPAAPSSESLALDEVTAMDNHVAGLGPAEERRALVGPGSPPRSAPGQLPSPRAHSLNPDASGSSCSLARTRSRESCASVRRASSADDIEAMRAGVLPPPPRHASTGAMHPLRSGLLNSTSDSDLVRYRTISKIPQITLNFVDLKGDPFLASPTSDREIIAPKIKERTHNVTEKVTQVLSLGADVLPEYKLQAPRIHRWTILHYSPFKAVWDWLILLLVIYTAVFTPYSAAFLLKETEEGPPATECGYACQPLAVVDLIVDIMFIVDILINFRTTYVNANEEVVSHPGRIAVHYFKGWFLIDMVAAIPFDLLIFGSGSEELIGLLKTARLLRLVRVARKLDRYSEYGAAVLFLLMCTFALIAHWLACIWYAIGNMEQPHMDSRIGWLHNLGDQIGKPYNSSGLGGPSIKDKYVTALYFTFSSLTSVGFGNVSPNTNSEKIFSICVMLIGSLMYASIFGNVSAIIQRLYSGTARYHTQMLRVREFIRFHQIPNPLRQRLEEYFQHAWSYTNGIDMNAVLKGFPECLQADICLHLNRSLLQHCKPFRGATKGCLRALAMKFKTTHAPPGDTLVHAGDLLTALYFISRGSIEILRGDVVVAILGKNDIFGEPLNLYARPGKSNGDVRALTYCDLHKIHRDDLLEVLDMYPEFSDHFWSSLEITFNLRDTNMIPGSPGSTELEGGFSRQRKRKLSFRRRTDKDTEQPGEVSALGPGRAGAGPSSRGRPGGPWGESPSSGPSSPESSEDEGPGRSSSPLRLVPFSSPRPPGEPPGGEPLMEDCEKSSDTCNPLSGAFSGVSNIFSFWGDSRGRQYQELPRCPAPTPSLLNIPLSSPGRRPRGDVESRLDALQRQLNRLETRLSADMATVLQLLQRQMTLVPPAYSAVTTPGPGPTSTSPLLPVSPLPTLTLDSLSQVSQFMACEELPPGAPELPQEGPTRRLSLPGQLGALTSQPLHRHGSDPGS", "settings": "cited from earlier work"}, "[8]": {"settings": "rat; cited from earlier work"}, "[9]": {"settings": "mouse, in vivo; cited from earlier work"}, "AR [10]": {"biological_target": "T1, AR", "settings": "compared with MDV-3100; cited from earlier work"}, "[11]": {"settings": "dog; cited from earlier work"}, "[12]": {"system": "five major subtypes of CYP450", "settings": "cited from earlier work"}}, "note": "Read-outs that look alike come from different tables or passages of the source."}
{"smiles": "CC1(C)C(=O)N(c2ccc(C#N)c(C(F)(F)F)c2)C(=S)N1c1ccc(OC[C@@H](O)CO)cc1", "note": "[Crystal form I, (S)-4-(3-(4-(2,3-dihydroxypropoxy)phenyl)-4,4-dimethyl-5-carbonyl-2-thioimidazolin-1-yl)-2-(trifluoromethyl)benzonitrile]", "values": [{"measurement": "DSC peak", "setting": "[1]; after grinding treatment for 10 minutes", "result": 158.26, "unit": "°C"}, {"measurement": "DSC peak", "setting": "[1]; after heating treatment for 3 hours at 80° C.", "result": 158.17, "unit": "°C"}, {"measurement": "DSC peak", "setting": "[1]; after pressing treatment", "result": 158.33, "unit": "°C"}, {"measurement": "relative stability of crystal forms", "setting": "[2]", "result": "more stable"}, {"measurement": "Crystal form", "setting": "[3]; 0 month", "result": "Crystal form I"}, {"measurement": "Purity", "setting": "[3]; 0 month", "result": 99.93, "unit": "%"}, {"measurement": "Crystal form", "setting": "[3]; 6 months", "result": "Crystal form I"}, {"measurement": "Purity", "setting": "[3]; 6 months", "result": 99.93, "unit": "%"}, {"measurement": "Purity", "setting": "[3]; 12 months", "result": 99.93, "unit": "%"}, {"measurement": "Purity", "setting": "[3]; 24 months", "result": 99.93, "unit": "%"}, {"measurement": "Crystal form", "setting": "[3]; 36 months", "result": "Crystal form I"}, {"measurement": "Purity", "setting": "[3]; 36 months", "result": 99.94, "unit": "%"}, {"measurement": "long-term storage stability", "setting": "[3]; 36 months", "result": "stable after placing under such conditions for 36 months"}, {"measurement": "purity as detected by HPLC", "setting": "[4]; 40° C., day 0", "result": 99.93, "unit": "%"}, {"measurement": "purity as detected by HPLC", "setting": "[4]; 40° C., day 5", "result": 99.91, "unit": "%"}, {"measurement": "purity as detected by HPLC", "setting": "[4]; 40° C., day 10", "result": 99.91, "unit": "%"}, {"measurement": "purity as detected by HPLC", "setting": "[4]; 60° C., day 0", "result": 99.93, "unit": "%"}, {"measurement": "purity as detected by HPLC", "setting": "[4]; 60° C., day 5", "result": 99.92, "unit": "%"}, {"measurement": "purity as detected by HPLC", "setting": "[4]; 60° C., day 10", "result": 99.90, "unit": "%"}, {"measurement": "purity as detected by HPLC", "setting": "[4]; Lighting (4500 Lux), day 0", "result": 99.93, "unit": "%"}, {"measurement": "purity as detected by HPLC", "setting": "[4]; Lighting (4500 Lux), day 5", "result": 99.91, "unit": "%"}, {"measurement": "purity as detected by HPLC", "setting": "[4]; Lighting (4500 Lux), day 10", "result": 99.91, "unit": "%"}, {"measurement": "purity as detected by HPLC", "setting": "[4]; RH 75%, day 0", "result": 99.93, "unit": "%"}, {"measurement": "purity as detected by HPLC", "setting": "[4]; RH 75%, day 5", "result": 99.89, "unit": "%"}, {"measurement": "purity as detected by HPLC", "setting": "[4]; RH 75%, day 10", "result": 99.91, "unit": "%"}, {"measurement": "purity as detected by HPLC", "setting": "[4]; RH 90%, day 0", "result": 99.93, "unit": "%"}, {"measurement": "purity as detected by HPLC", "setting": "[4]; RH 90%, day 5", "result": 99.92, "unit": "%"}, {"measurement": "purity as detected by HPLC", "setting": "[4]; RH 90%, day 10", "result": 99.92, "unit": "%"}]}
{"smiles": "CNC(=O)c1ccc(N2C(=S)N(c3ccc(C#N)c(C(F)(F)F)c3)C(=O)C2(C)C)cc1F", "note": "[MDV-3100]", "values": [{"measurement": "inhibition of growth of AIPC", "setting": "AIPC [5]", "result": "can inhibit the growth of AIPC"}, {"measurement": "inhibition of growth of AIPC", "setting": "AIPC [6]", "result": "can inhibit the growth of AIPC"}]}
{"smiles": "CC1(C)C(=O)N(c2ccc(C#N)c(C(F)(F)F)c2)C(=S)N1c1ccc(OC[C@@H](O)CO)cc1", "note": "[compound of formula (I), (S)-4-(3-(4-(2,3-dihydroxypropoxy)phenyl)-4,4-methyl-5-carbonyl-2-thioimidazolin-1-yl)-2-(trifluoromethyl)benzonitrile]", "values": [{"measurement": "AR agonist activity", "setting": "AR [7]; at 3 μM", "result": "no AR agonist activity"}, {"measurement": "AR agonist activity", "setting": "AR [7]; at 10 μM", "result": "no AR agonist activity"}, {"measurement": "IC50", "setting": "hERG", "result": 24.8, "unit": "µM"}, {"measurement": "in vivo exposure", "setting": "[8]", "result": "comparable to that of MDV-3100"}, {"measurement": "ratio of drug concentration in brain tissue to drug concentration in plasma", "setting": "[9]", "result": "much lower than that of MDV-3100"}, {"measurement": "activity in vitro", "setting": "AR [10]", "result": "slightly better than that of MDV-3100"}, {"measurement": "in vivo exposure", "setting": "[11]", "result": "more than six times that of MDV-3100"}, {"measurement": "IC50", "setting": "[12]", "result": "> 50", "unit": "µM"}]}
{"smiles": "CC1(C)C(=O)N(c2ccc(C#N)c(C(F)(F)F)c2)C(=S)N1c1ccc(OC[C@@H](O)CO)cc1", "note": "[crystal form III]", "values": [{"measurement": "crystal form transformation", "setting": "[2]; pulped with crystal form I in ethyl acetate-isopropyl ether (v:v=1:1) at room temperature", "result": "can be transformed into crystal form I"}]}
